Entries after “also recorded” stand apart in the source; their conditions may differ. Each block holds one compound with its values, some of them ahead of it.
Tests used:
[1] = biological target: Protein Tyrosine Kinase (src) (Homo sapiens, UniProt P12931); experiment: Protein Tyrosine Kinase Assay (src); format: biochemical; details: Table 1; Raytide substrate
Experimental: Protein Tyrosine Kinase Assay (src)
The Assay components are the following:
4 μL DMSO or DMSO/inhibitor

PKC-α = PKC-α (Homo sapiens, UniProt P17252); experiment: PKC Enzyme Assay, alpha isozyme; format: biochemical; details: Table 1, 30 μM ATP, 30° C., 10 minutes
Experimental: PKC enzymes=alpha, beta I, beta II, gamma, delta, epsilon, eta and zeta.
Assay components in a total volume of 250 μL are as follows:
For all the enzymes either histone type HL (Worthington) or myelin basic protein is used as substrate. The assay is started by addition of protein kinase C enzyme incubated at 30° C. for 10 minutes and stopped by adding 0.5 mL of cold trichloroacetic acid (Amresco) followed by 100 μL of 1 mg/mL bovine serum albumin (Sigma, St. Louis, Mo.). The precipitate is collected by vacuum filtration on glass fiber filters employing a TOMTEC™ filtration system and quantified by counting in a beta scintillation counter.

[2] = from CN1C(=O)C(c2c[nH]c3ccccc23)=C(c2cn(CCOC(CCI)CO[Si](c3ccccc3)(c3ccccc3)C(C)(C)C)c3ccccc23)C1=O; amine bond; Cs2CO3; DMF; 8.98 mM; 68.0 h
[3] = system: protein kinase C isozymes; details: literature; cited from earlier work

Protein Tyrosine Kinase (src), sequence (P12931 whole entry, species assumed): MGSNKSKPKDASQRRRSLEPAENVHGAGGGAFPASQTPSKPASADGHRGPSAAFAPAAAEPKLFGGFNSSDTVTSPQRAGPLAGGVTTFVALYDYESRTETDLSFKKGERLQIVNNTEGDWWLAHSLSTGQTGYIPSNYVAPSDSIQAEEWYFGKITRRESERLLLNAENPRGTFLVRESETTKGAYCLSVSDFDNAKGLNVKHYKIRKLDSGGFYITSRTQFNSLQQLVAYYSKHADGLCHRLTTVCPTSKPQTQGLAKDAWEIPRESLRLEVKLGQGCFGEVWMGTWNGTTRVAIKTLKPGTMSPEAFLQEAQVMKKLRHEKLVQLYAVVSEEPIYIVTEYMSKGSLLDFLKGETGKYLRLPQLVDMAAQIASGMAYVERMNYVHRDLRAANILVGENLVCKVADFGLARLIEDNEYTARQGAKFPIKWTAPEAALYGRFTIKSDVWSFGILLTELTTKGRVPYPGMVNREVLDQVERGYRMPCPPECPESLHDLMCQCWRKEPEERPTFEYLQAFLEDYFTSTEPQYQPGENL

IC50 [1]: > 100 µM
SMILES: O=C1NC(=O)C2=C1c1cn(c3ccccc13)CCO[C@H](CNCc1ccccc1)CCn1cc2c2ccccc21 [Example 18s]

IC50 (PKC-α): > 5 µM
SMILES: O=C1NC(=O)C2=C1c1cn(c3ccccc13)CCO[C@H](CNS(=O)(=O)c1ccccc1)CCn1cc2c2ccccc21 [Example 21s]

SMILES: CN1C(=O)C2=C(C1=O)c1cn(c3ccccc13)CCC(CO[Si](c1ccccc1)(c1ccccc1)C(C)(C)C)OCCn1cc2c2ccccc21 (stereo not shown)
ring closure, yield of all isomers [2]: 82%

SMILES: CN(C)CCCn1cc(C2=C(c3c[nH]c4ccccc34)C(=O)NC2=O)c2ccccc21 [3-[1-(3-dimethylaminopropyl)-indol-3-yl]-4-(1H-indol-3-yl)-1H-pyrrole-2,5-dione]
PKC isozyme selectivity [3]: slight selectivity for the calcium dependent isozymes; also recorded: no difference, or possibly slight selectivity, for alpha over beta-1 and beta-2 isozymes

From patent publication US5698578A, “Protein kinase C inhibitors” (Eli Lilly and Company, priority 1996, dated 1997)
